{
  "source": "patent US20060263502A1",
  "about": "“Absorbent material for use in humid conditions” (priority 2003, published 2006)",
  "test": "Sensitivity to moisture of tetrazine compounds in polystyrene",
  "type": "physicochemical",
  "details": "0.2M in polystyrene film about 130 μm; relative humidity 93% at 25° C.; at least 42 days; absorbance 500-550 nm",
  "experimental": "The depletion of the tetrazine compound, as measured by % absorbance change, was used to indicate the sensitivity to moisture of the tetrazine compounds.\nCompositions were prepared by blending the tetrazine compounds at a concentration of 0.2M into polystyrene. Each composition was then compression moulded to form a film having a thickness of about 130 μm. Each film sample was then mounted in a cell holder and the maximum absorbance between 500-550 nm measured. The cell holders containing the film samples were then placed on a mesh platform in a 550 mL squat glass jar fitted with a screw cap and polypropylene wad seal. To achieve a relative humidity of 93% at 25° C., a saturated solution of potassium nitrate covered the bottom of the jars (approx. 10 mm below the mesh platform). The jars were stored in a controlled-temperature room at 25° C.\nAt intervals of several days for at least 42 days, samples were in turn removed from their jars, and the maximum absorbance recorded between 500-550 nm, before immediately returning them to the controlled-temperature room in their sealed jars.",
  "data": [
    {"smiles": "COC(=O)c1nnc(C(=O)OC)nn1", "note": "[DMTD, dimethyl-1,2,4,5-tetrazine-3,6-dicarboxylate, reference compound]", "values": [
      {"measurement": "sensitivity to moisture (depletion of the tetrazine compound, as measured by % absorbance change)", "result": "highly unstable to moisture"}
    ]}
  ]
}
